Results on 13 molecules are retold here after US7109333B2, “Heterocyclic compounds” (SmithKline Beecham Corporation, priority 1998, dated 2006).

The test system of assay [1] is HN5 head and neck tumor cell line. The assay is described as follows: Methylene blue growth inhibition assay, HN5. It is filed as cell-based. The conditions noted are these: Homo sapiens, 72 h; HN5, 3 days; read-out: Cell Proliferation HN5, IC50. As to the method:
(§1) Human breast (BT474), head and neck (HN5) and gastric tumor (N87) cell lines were cultured in low glucose DMEM (Life Technologies 12320–032) containing 10% fetal bovine serum (FBS) at 37° C. in a humidified 10% CO2, 90% air incubator. The SV40 transformed human mammary epithelial cell line HB4a was transfected with either human H-ras cDNA (HB4a r4.2) or the human c-erbB2 cDNA (HB4a c5.2). The HB4a clones were cultured in RPMI containing 10% FBS, insulin (5 μg/ml), hydrocortisone (5 μg/ml), supplemented with the selection agent hygromycin B (50 μg/ml). Cells were harvested using trypsin/EDTA, counted using a haemocytometer, and plated in […] of the appropriate media, at the following densities, in a 96-well tissue culture plate (Falcon 3075): BT474 10,000 cells/well, HN5 3,000 cells/well, N87 10,000 cells/well, HB4a c5.2 3,000 cells/well, HB4a r4.2 3,000 cells/well. The next day, compounds were diluted in DMEM containing […] gentamicin, at twice the final required concentration, from 10 mM stock solutions in DMSO. […] of these dilutions were added to the […] of media currently on the cell plates. Medium containing 0.6% DMSO was added to control wells. Compounds diluted in DMEM were added to all cell lines, including the HB4a r4.2 and HB4a c5.2 cell lines. The final concentration of DMSO in all wells was 0.3%. Cells were incubated at 37° C., 10% CO2 for 3 days. Medium was removed by aspiration. Cell biomass was estimated by staining cells with 100 μl per well methylene blue (Sigma M9140, 0.5% in 50:50 ethanol:water), and incubation at room temperature for at least 30 minutes. Stain was removed, and the plates rinsed under a gentle stream of water, and air-dried. To release stain from the cells 100 μl of solubilization solution was added (1% N-lauroyl sarcosine, Sodium salt, Sigma L5125, in PBS), and plates were shaken gently for about 30 minutes. Optical density at 620 nm was measured on a microplate reader. Percent inhibition of cell growth was calculated relative to vehicle treated control wells. Concentration of compound that inhibits 50% of cell growth (IC50) was interpolated using nonlinear regression (Levenberg-Marquardt) and the equation, y=Vmax*(1−(x/(K+x)))+Y2, where “K” was equal to the IC50.

Another assay has as its target T1, c-erbB-2 (Homo sapiens, UniProt P04626).
T1 construct: baculovirus expressed, recombinant constructs of the intracellular domains of c-erbB-2 and c-erbB-4; made in house
The assay is described as follows: Substrate phosphorylation assay, erbB2, assay (b) (SPA, 33P-ATP). The conditions noted are these: Tables 1A and 1B. It is filed as biochemical. An excerpt: The substrate phosphorylation assays use baculovirus expressed, recombinant constructs of the intracellular domains of c-erbB-2 and c-erbB-4 that are constitutively active and EGFr isolated from solubilised A431 cell membranes. The method measures the ability of the isolated enzymes to catalyse the transfer of the g-phosphate from ATP onto tyrosine residues in a biotinylated synthetic peptide (Biotin-[…]. Substrate phosphorylation was detected following either of the following two procedures: a.) c-ErbB-2, c-ErbB4 or EGFr were incubated for 30 minutes, at room temperature, with 10 mM MnCl2, 10 mM ATP, 5 mM peptide, and test compound (diluted from a 5 mM stock in DMSO, final DMSO concentration is 2%) in 40 mM HEPES buffer, pH 7.4. The reaction was stopped by the addition of EDTA (final concentration 0.15 mM) and a sample was transferred to a streptavidin-coated 96-well plate. The plate was washed and the level of phosphotyrosine on the peptide was determined using a Europium-labelled antiphosphotyrosine antibody and quantified with a time-resolved fluorescence technique. b.) ErbB2 was incubated for 50 minutes at room temperature with 15 mM MnCl2, 2 mM ATP, 0.25 mCi [γ-^33P] ATP/well, 5 mM peptide substrate, and test compound (diluted from a 10 mM stock in DMSO, final DMSO concentration is 2%) in 50 mM MOPS pH 7.2. The reaction was terminated by the addition of […] of PBS containing 2.5 mg/ml streptavidin-coated SPA beads (Amersham Inc.), 50 mM ATP, 10 mM EDTA and 0.1% TX-100. The microtitre plates were sealed and SPA beads were allowed to settle for at least six hours. The SPA signal was measured using a Packard Topcount 96-well plate scintillation counter (Packard Instrument Co., Meriden, Conn.).

The subject of assay [2] is BT474 breast tumor cell line. The assay is described as follows: Methylene blue growth inhibition assay, BT474. It is filed as cell-based. The conditions noted are these: Homo sapiens, BT-474, 72 h; BT474, 3 days; read-out: Cell Proliferation BT474, IC50. As to the method:
as §1

Assay [3] has as its system N87 gastric tumor cell line. Nature of the assay: Methylene blue growth inhibition assay, N87. Type of assay: cell-based. The conditions noted are these: Homo sapiens, 72 h; N87, 3 days; read-out: Cell Proliferation N87, IC50. The procedure: as §1
In assay [4] the test system is HB4a c5.2 (HB4a transfected with human c-erbB2 cDNA). The assay is described as follows: Methylene blue growth inhibition assay, HB4a erbB2. It is filed as cell-based. The conditions noted are these: 72 h, HB4a c5.2, 3 days, read-out: Cell Proliferation HB4a erbB2, IC50. The procedure: as §1
Assay [5] concerns HB4a r4.2 (HB4a transfected with human H-ras cDNA). Nature of the assay: Methylene blue growth inhibition assay, HB4a ras. It is filed as cell-based. The conditions noted are these: 72 h, HB4a r4.2, 3 days, read-out: Cell Proliferation HB4a ras, IC50. As to the method: as §1

T1 sequence (P04626 676-1255 limits assumed): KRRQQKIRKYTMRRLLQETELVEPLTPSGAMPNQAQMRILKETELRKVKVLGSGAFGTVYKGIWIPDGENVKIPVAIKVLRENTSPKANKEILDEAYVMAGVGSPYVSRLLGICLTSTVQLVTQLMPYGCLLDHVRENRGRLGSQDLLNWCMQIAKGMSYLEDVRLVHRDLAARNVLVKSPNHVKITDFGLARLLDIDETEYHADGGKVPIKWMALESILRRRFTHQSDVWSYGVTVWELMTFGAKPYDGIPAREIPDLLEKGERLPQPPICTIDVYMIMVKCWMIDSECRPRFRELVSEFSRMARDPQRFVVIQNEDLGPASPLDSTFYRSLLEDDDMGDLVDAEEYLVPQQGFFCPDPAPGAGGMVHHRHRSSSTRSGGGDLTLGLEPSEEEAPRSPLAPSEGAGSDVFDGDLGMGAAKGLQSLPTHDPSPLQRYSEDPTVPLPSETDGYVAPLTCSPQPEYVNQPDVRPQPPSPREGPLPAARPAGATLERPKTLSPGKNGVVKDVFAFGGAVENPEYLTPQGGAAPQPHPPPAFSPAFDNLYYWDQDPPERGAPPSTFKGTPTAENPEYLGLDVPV

In the case of `COc1cc2ncnc(Nc3ccc4c(cnn4Cc4ccccc4)c3)c2cc1-c1ccc(CNCCS(C)(=O)=O)o1` [Example 16, N-(1-benzyl-1H-indazol-5-yl)-7-methoxy-6-[5-({[2-(methanesulphonyl)ethyl]amino}methyl)-2-furyl]-4-quinazolinamine], the IC50 in assay [1] was < 5 µM; against c-erbB-2 it was < 0.1 µM; in assay [2], < 5 µM; in assay [3], < 5 µM; in assay [4], < 5 µM; in assay [5] it was 5 to 25 µM.

With `CS(=O)(=O)CCNCc1nc(-c2ccc3ncnc(Nc4ccc(OCc5cccc(F)c5)c(F)c4)c3c2)cs1` [Example 25, N-{3-fluoro-4-[(3-fluorobenzyl)oxy]phenyl}-6-[2-({[2-(methanesulphonyl)ethyl]amino}methyl)-1,3-thiazol-4-yl]-4-quinazolinamine], the IC50 is < 5 µM in assay [1]; < 0.1 µM on c-erbB-2; < 5 µM in assay [2]; < 5 µM in assay [3]; < 5 µM in assay [4]; > 50 µM in assay [5].

Regarding `CS(=O)(=O)CCNCc1ccc(-c2ccc3ncnc(Nc4ccc(OCc5ccccc5)c(C(F)(F)F)c4)c3c2)o1` [Example 37], the IC50 is < 5 µM in assay [1]; < 0.1 µM against c-erbB-2; < 5 µM in assay [2]; < 5 µM in assay [3]; < 5 µM in assay [4]; 25 to 50 µM in assay [5].

Take `COc1cc2ncnc(Nc3ccc(OCc4ccccc4)cc3)c2cc1-c1ccc(CNCCS(C)(=O)=O)o1` [Example 10]: the IC50 in assay [1] was < 5 µM; at c-erbB-2, < 0.1 µM; in assay [2] it was < 5 µM; in assay [3], < 5 µM; in assay [4], < 5 µM; in assay [5] it was 5 to 25 µM.

Consider `CS(=O)(=O)CCNCc1nc(-c2ccc3ncnc(Nc4ccc(OCc5cccc(Br)c5)cc4)c3c2)cs1` [Example 13, N-{4-[(3-bromobenzyl)oxy]phenyl}-6-[2-({[2-(methanesulphonyl)ethyl]amino}methyl)-1,3-thiazol-4-yl]-4-quinazolinamine], for which the IC50 in assay [1] is 25 to 50 µM; at c-erbB-2 it was 0.1 to 1 µM; in assay [2], 5 to 25 µM; in assay [3], 5 to 25 µM; in assay [4] it was 5 to 25 µM; in assay [5], > 50 µM.

Regarding `CS(=O)(=O)CCNCc1ccc(-c2ccc3ncnc(Nc4ccc(OCc5cccc(F)c5)c(F)c4)c3c2)o1` [Example 18, N-{3-fluoro-4-[(3-fluorobenzyl)oxy]phenyl}-6-[5-({[2-(methanesulphonyl)ethyl]amino}methyl)-2-furyl]-4-quinazolinamine], the IC50 is < 5 µM in assay [1]; < 0.1 µM against c-erbB-2; < 5 µM in assay [2]; < 5 µM in assay [3]; < 5 µM in assay [4]; 5 to 25 µM in assay [5].

As for `CS(=O)(=O)CCNCc1ccc(-c2ccc3ncnc(Nc4ccc(OCc5cccc(C(F)(F)F)c5)cc4)c3c2)o1` [Example 17, 6-[5-({[2-(methanesulphonyl)ethyl]amino}methyl)-2-furyl]-N-(4-{[3-(trifluoromethyl)benzyl]oxy}phenyl)-4-quinazolinamine], the IC50 in assay [1] is 5 to 25 µM; against c-erbB-2, < 0.1 µM; in assay [2], < 5 µM; in assay [3], 5 to 25 µM; in assay [4], 5 to 25 µM; in assay [5] it was 5 to 25 µM.

With `CS(=O)(=O)CCNCc1ccoc1-c1ccc2ncnc(Nc3ccc(OCc4ccccc4)cc3)c2c1` [Example 20, N-[4-(benzyloxy)phenyl]-6-[3-({[2-(methanesulphonyl)ethyl]amino}methyl)-2-furyl]-4-quinazolinamine], the IC50 in assay [1] is 5 to 25 µM; against c-erbB-2 it was < 0.1 µM; in assay [2] it was < 5 µM; in assay [3] it was < 5 µM; in assay [4], < 5 µM; in assay [5], > 50 µM.

On to `CS(=O)(=O)CCNCc1ccc(-c2cc3c(Nc4ccc(OCc5ccccc5)cc4)ncnc3cc2F)o1` [Example 34, N-[4-(Benzyloxy)phenyl]-7-fluoro-6-[5-({[2-(methanesulphonyl)ethyl]amino}methyl)-2-furyl]-4-quinazolinamine], for which the IC50 is < 5 µM in assay [1]; < 0.1 µM against c-erbB-2; < 5 µM in assay [2]; < 5 µM in assay [3]; < 5 µM in assay [4]; > 50 µM in assay [5].

Take `CS(=O)(=O)CCNCc1ccc(-c2ccc3ncnc(Nc4ccc(S(=O)(=O)c5ccccc5)cc4)c3c2)o1` [Example 22, 6-[5-({[2-(methanesulphonyl)ethyl]amino}methyl)-2-furyl]-N-[4-(benzenesulphonyl)phenyl]-4-quinazolinamine]: the IC50 in assay [1] was < 5 µM; at c-erbB-2, < 0.1 µM; in assay [2], < 5 µM; in assay [3], < 5 µM; in assay [4] it was < 5 µM; in assay [5], 25 to 50 µM.

As for `CS(=O)(=O)CCNCc1nc(-c2ccc3ncnc(Nc4ccc(OCc5ccccc5)c(F)c4)c3c2)cs1` [Example 15, N-[4-(benzyloxy)-3-fluorophenyl]-6-[2-({[2-(methanesulphonyl)ethyl]amino}methyl)-1,3-thiazol-4-yl]-4-quinazolinamine], the IC50 in assay [1] is < 5 µM; at c-erbB-2 it was < 0.1 µM; in assay [2], < 5 µM; in assay [3] it was < 5 µM; in assay [4], < 5 µM; in assay [5] it was > 50 µM.

In the case of `CS(=O)(=O)CCNCc1nc(-c2ccc3ncnc(Nc4ccc(OCc5cccc(C(F)(F)F)c5)cc4)c3c2)cs1` [Example 24, 6-[2-({[2-(methanesulphonyl)ethyl]amino}methyl)-1,3-thiazol-4-yl]-N-(4-{[3-(trifluoromethyl)benzyl]oxy}phenyl)-4-quinazolinamine], the IC50 in assay [1] is < 5 µM; against c-erbB-2, < 0.1 µM; in assay [2] it was 5 to 25 µM; in assay [3], 5 to 25 µM; in assay [4], 5 to 25 µM; in assay [5], > 50 µM.

`CS(=O)(=O)CCNCc1ccc(-c2ccc3ncnc(Nc4ccc(OCc5ccccc5)c(F)c4)c3c2)o1` [Example 27]: the IC50 in assay [1] is < 5 µM; against c-erbB-2 it was < 0.1 µM; in assay [2], < 5 µM; in assay [3], < 5 µM; in assay [4] it was < 5 µM; in assay [5], 5 to 25 µM.
